According to patent US10343992B2, “1-cyano-pyrrolidine compounds as USP30 inhibitors” (MISSION THERAPEUTICS LIMITED, priority 2015, dated 2019):

Molecular target: USP30 (Homo sapiens (Human), UniProt Q70CQ3)
Assay: USP30 biochemical FP or FI IC50 assay
Settings: read-out: IC50 range
How it was run: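 Human USP30 preincubated 30 min at room temperature with compound (8-point series, 100 µM top final) in Tris pH 7.5, Tween 20, BSA, 5 mM β-mercaptoethanol, in duplicate. FP format: 50 nM TAMRA-peptide–isopeptide-ubiquitin substrate, ex 540/em 590. FI format: 100 nM ubiquitin-rhodamine 110, ex 487/em 535. Both read at 0 and after 2 h at room temperature.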

Chain of USP30 (Q70CQ3 57-517): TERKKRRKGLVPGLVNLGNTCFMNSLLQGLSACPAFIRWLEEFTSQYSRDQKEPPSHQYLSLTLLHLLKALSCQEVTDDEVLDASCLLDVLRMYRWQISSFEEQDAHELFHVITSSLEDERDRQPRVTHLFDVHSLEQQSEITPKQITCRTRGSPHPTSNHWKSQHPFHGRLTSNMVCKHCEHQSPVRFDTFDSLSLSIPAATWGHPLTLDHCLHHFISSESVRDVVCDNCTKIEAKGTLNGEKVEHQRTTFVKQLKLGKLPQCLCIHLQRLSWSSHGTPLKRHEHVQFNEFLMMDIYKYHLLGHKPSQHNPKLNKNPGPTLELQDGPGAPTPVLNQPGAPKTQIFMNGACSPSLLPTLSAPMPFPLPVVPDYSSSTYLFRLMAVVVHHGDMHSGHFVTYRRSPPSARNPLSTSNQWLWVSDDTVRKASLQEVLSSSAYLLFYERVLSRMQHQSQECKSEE

SMILES	IC50 [nM]
CCn1cc(-c2ccc3nc(C(=O)N[C@@H]4CCN(C#N)C4)c(F)n3c2)cn1 [Example 169, (R)-N-(1-cyanopyrrolidin-3-yl)-6-(1-ethyl-1H-pyrazol-4-yl)-3-fluoroimidazo[1,2-a]pyridine-2-carboxamide]	100 to 1000
COC1(c2ccccc2)CN(C(=O)N[C@@H]2CCN(C#N)C2)C1 [Example 188, (R)-N-(1-cyanopyrrolidin-3-yl)-3-methoxy-3-phenylazetidine-1-carboxamide]	100 to 1000
CN(C(=O)N1CC(c2ccccc2)C1)[C@@H]1CCN(C#N)C1 [Example 189, (R)-N-(1-cyanopyrrolidin-3-yl)-N-methyl-3-phenylazetidine-1-carboxamide]	100 to 1000
COc1ccc(C2CN(C(=O)N[C@@H]3CCN(C#N)C3)C2)cc1 [Example 190, (R)-N-(1-cyanopyrrolidin-3-yl)-3-(4-methoxyphenyl)azetidine-1-carboxamide]	< 100
N#CN1CC[C@@H](NC(=O)N2CC(c3ccc(Cl)cc3)C2)C1 [Example 191, (R)-3-(4-chlorophenyl)-N-(1-cyanopyrrolidin-3-yl)azetidine-1-carboxamide]	< 100
N#CN1CC[C@@H](NC(=O)N2CC(c3cccc(Cl)c3)C2)C1 [Example 192, (R)-3-(3-chlorophenyl)-N-(1-cyanopyrrolidin-3-yl)azetidine-1-carboxamide]	< 100
N#CN1C[C@H]2CCN(C(=O)N3CC(c4ccccc4)C3)[C@H]2C1 [Example 193, (3aR,6aR)-1-(3-phenylazetidine-1-carbonyl)hexahydropyrrolo[3,4-b]pyrrole-5(1H)-carbonitrile]	100 to 1000
CN(C(=O)Nc1ccc(-c2cnn(C)c2)cc1)[C@@H]1CCN(C#N)C1 [Example 194, (R)-1-(1-cyanopyrrolidin-3-yl)-1-methyl-3-(4-(1-methyl-1H-pyrazol-4-yl)phenyl)urea]	100 to 1000
CN(C(=O)Nc1ccc(C(F)(F)F)cc1)[C@@H]1CCN(C#N)C1 [Example 195, (R)-1-(1-cyanopyrrolidin-3-yl)-1-methyl-3-(4-(trifluoromethyl)phenyl)urea]	100 to 1000
N#CN1C[C@H]2CCN(C(=O)Nc3ccc(Cl)cc3F)[C@H]2C1 [Example 196, (3aR,6aR)-N-(4-chloro-2-fluorophenyl)-5-cyanohexahydropyrrolo[3,4-b]pyrrole-1(2H)-carboxamide]	100 to 1000
N#CN1C[C@H]2CCN(C(=O)Nc3ccc(OC(F)(F)F)cc3F)[C@H]2C1 [Example 197, (3aR,6aR)-5-cyano-N-(2-fluoro-4-(trifluoromethoxy)phenyl)hexahydropyrrolo[3,4-b]pyrrole-1(2H)-carboxamide]	< 100
N#Cc1cc(F)c(NC(=O)N2CC[C@@H]3CN(C#N)C[C@@H]32)cc1F [Example 199, (3aR,6aR)-5-cyano-N-(4-cyano-2,5-difluorophenyl)hexahydropyrrolo[3,4-b]pyrrole-1(2H)-carboxamide]	100 to 1000
N#CN1C[C@H]2CCN(C(=O)Nc3cc(C(F)(F)F)ccc3F)[C@H]2C1 [Example 201, (3aR,6aR)-5-cyano-N-(2-fluoro-5-(trifluoromethyl)phenyl)hexahydro-pyrrolo[3,4-b]pyrrole-1(2H)-carboxamide]	< 100
N#CN1C[C@H]2CCN(C(=O)Nc3ccc(-c4ccccc4)cn3)[C@H]2C1 [Example 202, (3aR,6aR)-5-cyano-N-(5-phenyl-pyridin-2-yl)hexahydropyrrolo[3,4-b]pyrrole-1(2H)-carboxamide]	< 100
N#CN1C[C@H]2CCN(C(=O)Nc3ccc(C(F)(F)F)cc3)[C@H]2C1 [Example 203, (3aR,6aR)-5-cyano-N-(4-(trifluoromethyl)-phenyl)-hexahydropyrrolo[3,4-b]pyrrole-1(2H)-carboxamide]	< 100
CCN(C(=O)Nc1ccc(C(F)(F)F)cc1)[C@@H]1CCN(C#N)C1 [Example 204, (R)-1-(1-cyanopyrrolidin-3-yl)-1-ethyl-3-(4-(trifluoromethyl)phenyl)urea]	< 100
COCCN(C(=O)Nc1ccc(C(F)(F)F)cc1)C1CCN(C#N)C1 (stereo not drawn) [Example 205, 1-(1-cyanopyrrolidin-3-yl)-1-(2-methoxyethyl)-3-(4-(trifluoromethyl)phenyl)urea]	100 to 1000
CCN(C(=O)N1CC(c2ccccc2)C1)[C@@H]1CCN(C#N)C1 [Example 207, (R)-N-(1-cyanopyrrolidin-3-yl)-N-ethyl-3-phenylazetidine-1-carboxamide]	100 to 1000
N#CN1CC[C@@H](N2CCN(c3nc(-c4ccccc4)cs3)C2=O)C1 [Example 208, (R)-3-(2-oxo-3-(4-phenylthiazol-2-yl)imidazolidin-1-yl)pyrrolidine-1-carbonitrile]	100 to 1000
N#CN1CC[C@@H](N2CCCN(c3nc(-c4ccccc4)cs3)C2=O)C1 [Example 209, (R)-3-(2-oxo-3-(4-phenylthiazol-2-yl)tetrahydropyrimidin-1(2 H)-yl)pyrrolidine-1-carbonitrile]	100 to 1000

More lines, now with the values ahead:

IC50 [nM]	SMILES
100 to 1000	Cc1ccc(-c2ccn3c(C(=O)N(C)[C@@H]4CCN(C#N)C4)cnc3c2)cn1 [Example 162, (R)-N-(1-cyanopyrrolidin-3-yl)-N-methyl-7-(6-methylpyridin-3-yl)imidazo[1,2-a]pyridine-3-carboxamide]
100 to 1000	Cc1nn(C)cc1-c1ccn2c(C(=O)N(C)[C@@H]3CCN(C#N)C3)cnc2c1 [Example 163, (R)-N-(1-cyanopyrrolidin-3-yl)-7-(1,3-dimethyl-1H-pyrazol-4-yl)-N-methylimidazo[1,2-a]pyridine-3-carboxamide]
100 to 1000	Cc1cc(-c2ccn3c(C(=O)N(C)[C@@H]4CCN(C#N)C4)cnc3c2)cc(C)n1 [Example 164, (R)-N-(1-cyanopyrrolidin-3-yl)-7-(2,6-dimethylpyridin-4-yl)-N-methylimidazo[1,2-a]pyridine-3-carboxamide]
100 to 1000	CCN(C(=O)c1cnc2cc(-c3ccnc(C)c3)ccn12)[C@@H]1CCN(C#N)C1 [Example 165, (R)-N-(1-cyanopyrrolidin-3-yl)-N-ethyl-7-(2-methylpyridin-4-yl)imidazo[1,2-a]pyridine-3-carboxamide]
100 to 1000	N#CN1CC[C@@H](NC(=O)c2cnc3cc(N4CCOCC4)ccn23)C1 [Example 166, (R)-N-(1-cyanopyrrolidin-3-yl)-7-morpholinoimidazo[1,2-a]pyridine-3-carboxamide]
< 100	N#Cc1cccc(-c2ccc3nc(C(=O)N[C@@H]4CCN(C#N)C4)c(F)n3c2)c1 [Example 167, (R)-6-(3-cyanophenyl)-N-(1-cyanopyrrolidin-3-yl)-3-fluoroimidazo[1,2-a]pyridine-2-carboxamide]
100 to 1000	Cc1nn(C)cc1-c1ccc2nc(C(=O)N[C@@H]3CCN(C#N)C3)c(F)n2c1 [Example 170, (R)-N-(1-cyanopyrrolidin-3-yl)-6-(1,3-dimethyl-1H-pyrazol-4-yl)-3-fluoroimidazo[1,2-a]pyridine-2-carboxamide]
< 100	N#CN1CC[C@@H](NC(=O)c2ccc(-c3ccn4nccc4n3)cc2F)C1 [Example 172, (R)-N-(1-cyanopyrrolidin-3-yl)-2-fluoro-4-(pyrazolo[1,5-a]pyrimidin-5-yl)benzamide]
< 100	N#CN1CC[C@@H](NC(=O)c2ccc(-c3ccc(F)cc3)cn2)C1 [Example 173, (R)-N-(1-cyanopyrrolidin-3-yl)-5-(4-fluorophenyl)picolinamide]
100 to 1000	Cc1nn(C)cc1-c1ccc(C(=O)N[C@@H]2CCN(C#N)C2)nc1 [Example 179, (R)-N-(1-cyanopyrrolidin-3-yl)-5-(1,3-dimethyl-1H-pyrazol-4-yl)picolinamide]
100 to 1000	Cc1nc(-c2ccc(C(=O)N[C@@H]3CCN(C#N)C3)nc2)cc(C(F)(F)F)n1 [Example 180, (R)-N-(1-cyanopyrrolidin-3-yl)-5-(2-methyl-6-(trifluoromethyl)pyrimidin-4-yl)picolinamide]
< 100	Cc1cc(-c2ccc(C(=O)N[C@@H]3CCN(C#N)C3)c(F)c2)nc(C)n1 [Example 181, (R)-N-(1-cyanopyrrolidin-3-yl)-4-(2,6-dimethylpyrimidin-4-yl)-2-fluorobenzamide]
< 100	Cc1ncc(F)c(-c2ccc(C(=O)N[C@@H]3CCN(C#N)C3)c(F)c2)n1 [Example 182, (R)-N-(1-cyanopyrrolidin-3-yl)-2-fluoro-4-(5-fluoro-2-methylpyrimidin-4-yl)benzamide]
100 to 1000	N#CN1CC[C@@H](NC(=O)c2ccc(-c3ccnc(C(F)(F)F)n3)cc2F)C1 [Example 183, (R)-N-(1-cyanopyrrolidin-3-yl)-2-fluoro-4-(2-(trifluoromethyl)pyrimidin-4-yl)benzamide]
< 100	Cc1nc2nccc-2c(-c2ccc(C(=O)N[C@@H]3CCN(C#N)C3)c(F)c2)[nH]1 [Example 184, (R)-N-(1-cyanopyrrolidin-3-yl)-2-fluoro-4-(2-methyl-3H-pyrrolo[2,3-d]pyrimidin-4-yl)benzamide]
< 100	N#CN1CC[C@@H](NC(=O)c2ccc(-c3cnc4cnccn34)cc2F)C1 [Example 185, (R)-N-(1-cyanopyrrolidin-3-yl)-2-fluoro-4-(imidazo[1,2-a]pyrazin-3-yl)benzamide]
100 to 1000	N#CN1CC[C@@H](NC(=O)c2ncc(-c3ccn4nccc4n3)cc2F)C1 [Example 186, (R)-N-(1-cyanopyrrolidin-3-yl)-3-fluoro-5-(pyrazolo[1,5-a]pyrimidin-5-yl)picolinamide]
100 to 1000	N#CN1CC[C@@H](NC(=O)c2ncc(-c3ccc4nccn4c3)cc2F)C1 [Example 187, (R)-N-(1-cyanopyrrolidin-3-yl)-3-fluoro-5-(imidazo[1,2-a]pyridin-6-yl)picolinamide]
100 to 1000	CCN(C(=O)c1ccc(-c2cnn(C)c2)c(F)c1)[C@@H]1CCN(C#N)C1 [Example 206, (R)-N-(1-cyanopyrrolidin-3-yl)-N-ethyl-3-fluoro-4-(1-methyl-1H-pyrazol-4-yl)benzamide]
